# Reference: publication PMC11864979, “First-in-class ultralong-target-residence-time p38α inhibitors as a mitosis-targeted therapy for colorectal cancer” (Nature Cancer, 2025)
# Like-named read-outs stand apart in the source and are kept apart here.
# How the values were obtained:
# Assay in all cases: selectivity profiling in a panel of 340 wild-type kinases (Reaction Biology Europe)
# Format in all cases: binding
# [1] = target: T1, 340 wild-type kinases (Homo sapiens, UniProt P27448)
# T1 construct: purchased Reaction Biology Europe
# T1 sequence (P27448 whole entry): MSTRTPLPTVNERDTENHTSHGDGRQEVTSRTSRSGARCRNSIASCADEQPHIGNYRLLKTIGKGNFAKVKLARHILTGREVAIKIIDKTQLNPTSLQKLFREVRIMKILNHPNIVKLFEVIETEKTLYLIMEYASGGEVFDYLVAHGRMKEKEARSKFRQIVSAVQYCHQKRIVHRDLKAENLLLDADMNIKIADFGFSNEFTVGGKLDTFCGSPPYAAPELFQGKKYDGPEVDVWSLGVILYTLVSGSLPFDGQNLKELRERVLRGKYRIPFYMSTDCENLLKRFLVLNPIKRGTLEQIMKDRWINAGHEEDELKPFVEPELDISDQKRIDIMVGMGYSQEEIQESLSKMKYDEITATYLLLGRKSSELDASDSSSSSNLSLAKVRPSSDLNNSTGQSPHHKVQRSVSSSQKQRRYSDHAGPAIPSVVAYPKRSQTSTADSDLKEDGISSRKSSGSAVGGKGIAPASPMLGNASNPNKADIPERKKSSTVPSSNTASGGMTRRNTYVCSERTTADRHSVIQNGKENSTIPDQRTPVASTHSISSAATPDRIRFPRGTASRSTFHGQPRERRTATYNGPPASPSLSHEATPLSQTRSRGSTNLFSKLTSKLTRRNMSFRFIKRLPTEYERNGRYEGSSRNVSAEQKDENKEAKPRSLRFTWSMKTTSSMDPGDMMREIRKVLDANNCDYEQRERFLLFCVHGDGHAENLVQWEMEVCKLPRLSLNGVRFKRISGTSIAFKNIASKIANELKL
# [2] = target: T2, 340 wild-type kinases (Homo sapiens, UniProt Q8WTQ7)
# T2 construct: purchased Reaction Biology Europe
# T2 sequence (Q8WTQ7 1-553): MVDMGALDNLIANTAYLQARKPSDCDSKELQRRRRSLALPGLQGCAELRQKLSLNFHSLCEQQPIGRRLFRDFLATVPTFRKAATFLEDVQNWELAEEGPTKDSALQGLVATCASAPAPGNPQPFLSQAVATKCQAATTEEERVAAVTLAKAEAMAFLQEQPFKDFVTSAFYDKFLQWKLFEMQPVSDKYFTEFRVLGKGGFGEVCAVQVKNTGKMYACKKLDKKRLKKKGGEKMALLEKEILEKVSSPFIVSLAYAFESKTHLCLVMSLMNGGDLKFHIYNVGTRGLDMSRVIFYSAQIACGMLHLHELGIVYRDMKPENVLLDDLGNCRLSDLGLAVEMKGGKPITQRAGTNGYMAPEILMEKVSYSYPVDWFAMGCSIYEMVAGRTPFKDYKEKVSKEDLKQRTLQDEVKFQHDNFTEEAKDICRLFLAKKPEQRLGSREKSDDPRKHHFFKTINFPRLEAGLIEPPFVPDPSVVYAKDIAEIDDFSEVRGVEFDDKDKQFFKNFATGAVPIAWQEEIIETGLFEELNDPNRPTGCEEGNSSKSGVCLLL
# [3] = target: T3, 340 wild-type kinases (Homo sapiens, UniProt Q9UBE8)
# T3 construct: purchased Reaction Biology Europe
# T3 sequence (Q9UBE8 1-527): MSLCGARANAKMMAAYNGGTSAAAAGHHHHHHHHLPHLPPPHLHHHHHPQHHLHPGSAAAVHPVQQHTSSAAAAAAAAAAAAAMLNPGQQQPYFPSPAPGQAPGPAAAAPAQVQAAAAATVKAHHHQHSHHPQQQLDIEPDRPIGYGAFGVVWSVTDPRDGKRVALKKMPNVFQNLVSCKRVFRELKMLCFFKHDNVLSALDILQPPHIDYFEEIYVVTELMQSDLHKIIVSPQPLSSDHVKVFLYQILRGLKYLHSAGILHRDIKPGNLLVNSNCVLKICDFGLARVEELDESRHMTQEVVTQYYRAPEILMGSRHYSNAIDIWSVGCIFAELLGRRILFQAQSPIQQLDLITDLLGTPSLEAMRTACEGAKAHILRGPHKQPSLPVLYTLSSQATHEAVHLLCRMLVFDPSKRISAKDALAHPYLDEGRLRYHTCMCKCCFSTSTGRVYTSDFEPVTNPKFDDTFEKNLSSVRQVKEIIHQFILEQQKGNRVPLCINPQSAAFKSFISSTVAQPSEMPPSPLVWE
# [4] = target: T4, 340 wild-type kinases (Homo sapiens, UniProt Q13177)
# T4 construct: purchased Reaction Biology Europe
# T4 sequence (Q13177 whole entry): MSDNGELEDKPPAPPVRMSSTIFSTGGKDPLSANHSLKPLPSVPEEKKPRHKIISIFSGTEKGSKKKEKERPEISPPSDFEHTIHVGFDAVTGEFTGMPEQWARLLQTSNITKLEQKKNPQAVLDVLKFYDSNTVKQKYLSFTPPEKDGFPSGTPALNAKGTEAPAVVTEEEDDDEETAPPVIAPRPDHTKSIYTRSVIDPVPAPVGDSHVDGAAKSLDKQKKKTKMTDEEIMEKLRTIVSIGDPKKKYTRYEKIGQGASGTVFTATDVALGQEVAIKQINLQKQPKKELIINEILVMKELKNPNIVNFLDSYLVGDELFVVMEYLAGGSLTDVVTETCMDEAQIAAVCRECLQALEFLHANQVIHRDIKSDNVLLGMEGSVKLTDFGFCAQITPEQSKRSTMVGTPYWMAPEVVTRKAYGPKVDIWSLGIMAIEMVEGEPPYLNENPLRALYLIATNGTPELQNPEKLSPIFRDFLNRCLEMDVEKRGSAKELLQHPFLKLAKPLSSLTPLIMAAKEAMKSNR
# [5] = target: T5, 340 wild-type kinases (Homo sapiens, UniProt P17612)
# T5 construct: purchased Reaction Biology Europe
# [6] = target: T6, 340 wild-type kinases (Homo sapiens, UniProt P42679)
# T6 construct: purchased Reaction Biology Europe
# T6 sequence (P42679 1-507): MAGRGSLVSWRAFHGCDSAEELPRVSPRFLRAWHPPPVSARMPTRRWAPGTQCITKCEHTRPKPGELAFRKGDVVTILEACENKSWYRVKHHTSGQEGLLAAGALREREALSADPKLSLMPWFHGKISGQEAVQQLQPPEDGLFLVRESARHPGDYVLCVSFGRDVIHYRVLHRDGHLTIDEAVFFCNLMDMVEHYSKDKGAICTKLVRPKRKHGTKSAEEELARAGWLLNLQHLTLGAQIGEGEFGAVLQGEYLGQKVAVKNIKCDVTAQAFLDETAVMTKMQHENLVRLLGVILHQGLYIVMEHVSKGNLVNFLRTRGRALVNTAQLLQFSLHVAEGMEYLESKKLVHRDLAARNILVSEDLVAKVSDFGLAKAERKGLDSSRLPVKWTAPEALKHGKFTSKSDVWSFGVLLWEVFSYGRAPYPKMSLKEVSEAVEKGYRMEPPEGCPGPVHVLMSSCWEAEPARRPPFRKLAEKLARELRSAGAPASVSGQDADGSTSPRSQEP
# [7] = target: T7, 340 wild-type kinases (Homo sapiens, UniProt Q08881)
# T7 construct: purchased Reaction Biology Europe
# T7 sequence (Q08881 1-620): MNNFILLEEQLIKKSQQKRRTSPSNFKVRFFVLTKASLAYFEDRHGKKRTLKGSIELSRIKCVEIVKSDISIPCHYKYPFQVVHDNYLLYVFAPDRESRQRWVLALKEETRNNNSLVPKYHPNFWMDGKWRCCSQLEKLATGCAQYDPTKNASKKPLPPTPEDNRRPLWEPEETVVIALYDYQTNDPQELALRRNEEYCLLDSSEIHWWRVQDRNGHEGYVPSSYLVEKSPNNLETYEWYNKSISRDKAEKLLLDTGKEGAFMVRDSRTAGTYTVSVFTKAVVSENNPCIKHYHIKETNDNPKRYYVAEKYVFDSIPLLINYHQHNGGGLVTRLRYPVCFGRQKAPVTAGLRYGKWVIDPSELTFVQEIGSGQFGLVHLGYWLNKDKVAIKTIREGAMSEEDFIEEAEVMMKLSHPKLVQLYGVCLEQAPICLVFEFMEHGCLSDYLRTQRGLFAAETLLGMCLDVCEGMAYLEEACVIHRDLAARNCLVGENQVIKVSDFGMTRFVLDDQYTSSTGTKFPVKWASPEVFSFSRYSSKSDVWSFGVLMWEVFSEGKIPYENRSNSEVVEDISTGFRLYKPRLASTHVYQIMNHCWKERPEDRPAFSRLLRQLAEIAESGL
smiles,measurement,setting,value
CNC(=O)c1ccc2c(c1)C(=O)c1ccc(Nc3ccc(F)c(NC(=O)C4CC4)c3)cc1CC2 [Compound 2015],remaining activity at 0.2 µM,"[1]; 0.2 µM 2015, read-out: MARK3 residual activity",117%
same,remaining activity at 1 µM,"[1]; 1 µM 2015, read-out: MARK3 residual activity",100%
same,remaining activity at 0.2 µM,"[1]; MARK3, 0.2 µM, read-out: residual activity",117%
same,remaining activity at 1 µM,"[1]; MARK3, 1 µM, read-out: residual activity",100%
same,remaining activity at 0.2 µM,"[2]; 0.2 µM 2015, read-out: GRK7 residual activity",123%
same,remaining activity at 1 µM,"[2]; 1 µM 2015, read-out: GRK7 residual activity",106%
same,remaining activity at 0.2 µM,"[2]; GRK7, 0.2 µM, read-out: residual activity",123%
same,remaining activity at 1 µM,"[2]; GRK7, 1 µM, read-out: residual activity",106%
same,remaining activity at 0.2 µM,"[3]; 0.2 µM 2015, read-out: NLK residual activity",92%
same,remaining activity at 1 µM,"[3]; 1 µM 2015, read-out: NLK residual activity",85.5%
same,remaining activity at 0.2 µM,"[3]; NLK, 0.2 µM, read-out: residual activity",92%
same,remaining activity at 1 µM,"[3]; NLK, 1 µM, read-out: residual activity",85.5%
same,remaining activity at 0.2 µM,"[4]; 0.2 µM 2015, read-out: PAK2 residual activity",103%
same,remaining activity at 1 µM,"[4]; 1 µM 2015, read-out: PAK2 residual activity",102%
same,remaining activity at 0.2 µM,"[4]; PAK2, 0.2 µM, read-out: residual activity",103%
same,remaining activity at 1 µM,"[4]; PAK2, 1 µM, read-out: residual activity",102%
same,remaining activity at 0.2 µM,"[5]; 0.2 µM 2015, read-out: PKA residual activity",124%
same,remaining activity at 1 µM,"[5]; 1 µM 2015, read-out: PKA residual activity",97.7%
same,remaining activity at 0.2 µM,"[5]; PKA, 0.2 µM, read-out: residual activity",124%
same,remaining activity at 1 µM,"[5]; PKA, 1 µM, read-out: residual activity",97.8%
same,remaining activity at 0.2 µM,"[6]; 0.2 µM 2015, read-out: MATK residual activity",112%
same,remaining activity at 1 µM,"[6]; 1 µM 2015, read-out: MATK residual activity",100%
same,remaining activity at 0.2 µM,"[6]; MATK, 0.2 µM, read-out: residual activity",112%
same,remaining activity at 1 µM,"[6]; MATK, 1 µM, read-out: residual activity",100%
same,remaining activity at 0.2 µM,"[7]; 0.2 µM 2015, read-out: ITK residual activity",89.4%
same,remaining activity at 1 µM,"[7]; 1 µM 2015, read-out: ITK residual activity",87%
same,remaining activity at 0.2 µM,"[7]; ITK, 0.2 µM, read-out: residual activity",89.4%
same,remaining activity at 1 µM,"[7]; ITK, 1 µM, read-out: residual activity",87%
